Consider seven molecules from patent US10675331B2, “Method for achieving desired glial growth factor 2 plasma levels” (priority 2008, dated 2020).

Entries after “also recorded” stand apart in the source; their conditions may differ.

For series [1], the system named is advanced colorectal, NSCLC, breast, and pancreatic cancer. Conditions: 67 patients; cited from earlier work.
For series [2] the following is noted: Phase I studies; cited from earlier work.
A further series deals with MAP kinase-kinase. The conditions noted are these: many assays; read-out: IC50 values for PD 98059-induced effects; cited from earlier work.
The next series concerns melanoma. The conditions noted are these: cited from earlier work.
The conditions of series [3]: in vivo; cited from earlier work.
Another series concerns P0. The conditions noted are these: U0126 treated cultures.
Another series relates to MAPK. Nature of the series: MAPK (Erk) activation in Schwann cell-DRG co-cultures, Western blot. It counts as cell-based, rat.
For another series, the system named is MEK-1 and MEK-2. The conditions noted are these: cited from earlier work.
Another series deals with Krox20. Conditions: U0126 treatment, 11 days.
Another series concerns Akt. Nature of the series: Akt (PI3-kinase pathway) activation in Schwann cell-DRG co-cultures, Western blot. It counts as cell-based, rat. The conditions noted are these: U0126 with GGF2.
Series [4] has as its system Schwann cell-DRG neuron co-cultures. Nature of the series: Myelination in Schwann cell-DRG neuron co-cultures, MBP immunostaining. It counts as cell-based, rat. As for the experimental part: Schwalm cells were prepared from sciatic nerves of newborn rats (1-2 day old) as described previously (Brookes et al., Brain Res. 1979; 165:105-118). For routine culture, Schwann cells were grown in. Dulbecco's modified Eagle's medium (DMEM) with 10% fetal bovine serum (FBS) supplemented with EGF-domain neuregulin-1 (R&D Systems) (10 ng/ml) and Forskolin (2 μM). Cells between passage 2-4 were used in all experiments described in the text.
Dissociated DRG were prepared from embryonic day 14.5 rat embryos as described previously (Eldridge et al., J Cell Biol. 1987; 105(2):1023-34) and plated onto collagen (type-1 rat tail collagen,)-coated 12 mm glass coverslips at a density of 1.25 DRG/coverslip. Five to six hours later, the cultures were flooded with neurobasal medium (Cellgro,) supplemented with B27 (GIBCO), 20% glucose, NGF (50 ng/ml) and 5-fluorodeoxyuridine (FUdR, 10 μM) and maintained in the medium for additional 2-3 days in order to remove proliferating non-neuronal cells. Cultures were then switched to fresh medium without FUdR and maintained until the DRG axons reached the periphery of the coverslips. After the axonal networks were established, Schwann cells were plated onto the neurons at a density of 100,000 cells/coverslip. […] Ten to eleven days later, myelination was assessed by immunostaining for MBP. […]

Another series deals with c-Jun. Nature of the series: c-Jun expression in co-culture lysates, Western blot. The conditions noted are these: GGF+U0126, 11 days. The class given is cell-based, rat. From the text:
Control cultures were maintained without any treatment (NT). Scale bar: 100 μm. […] Error bars indicate±SE (p<0.001). […] Actin level served as a loading control.

The test system of a further series is metastatic breast cancer. The conditions noted are these: less in the intermittent dosing group than the continuous; cited from earlier work.
The next series relates to advanced kidney cancer. The conditions noted are these: cited from earlier work.
[5] abbreviates: patients who received sorafenib.

Procedure for Akt: (§1) Monoclonal antibody to phosphorylated Akt and polyclonal antibody to phosphorylated MAPK were purchased from Cell Signaling and were used at dilutions of 1:1000 and 1:500, respectively. Polyclonal antibodies to Akt and MAPK (Promega) were used at dilutions of 1:1000 and 1:5000, respectively.
(§2) To prepare cell lysates, 90-95% confluent rat Schwann cells on 60 mm plates or co-cultures were washed twice in phosphate-buffered saline (PBS) and then lysed in 300 μl ice-cold lysis buffer (50 mM Tris HCl pH 7.4, 1% NP-40, 0.25% Sodium Deoxycholate, 150 mM NaCl, 1 mM EGTA, 10 μg/ml Leupeptin, 2 μg/ml Aprotinin, 1 mM PMSF and 0.5 mM sodium orthovanadate). Lysates were cleared by centrifugation for 15 min at 14,000 rpm in the cold and the protein concentration of the supernatants was determined according to manufacturer specifications (Bio-Rad: Hercules, Calif.). […]
(§3) To assess the possibility that the inhibitory effect of GGF2 on myelination could be due to its ability to induce a robust MAPK activation in Schwann cells, the present inventors used a well-established in vitro myelinating culture system in which Schwann cells are co-cultured with dorsal root ganglion (DRG) neurons and induced to myelinate the associated axons by addition of ascorbic acid to the culture media. […] Twenty minutes later, cell lysates were prepared and MAPK activation was determined by Western blot analysis. […]
Procedure for Krox20: Schwann cell-DRG co-cultures were pre-treated with U0126 for 30 minutes then GGF (0.6 nM) was added in the continuous presence of U0126. After 45 minutes the cell lysates were prepared and level of p-Erk and p-Akt were determined. […] Control cultures were maintained without any treatment (NT). […] Co-cultures were treated with increasing concentration of U0126 (0.5, 1 and 3 nM) under myelinating condition and 11 days later, myelination was analyzed as above. […] Co-cultures were maintained under myelinating condition in the presence of GGF or GGF+U0126 (0.5, 1 and 3 nM) for 11 days and the cell lysates were analyzed for MBP, c-Jun and Krox 20 expression. Actin level served as a loading control.
as §2
Procedure for MAPK: as §1
To prepare cell lysates, 90-95% confluent rat Schwann cells on 60 mm plates or co-cultures were washed twice in phosphate-buffered saline (PBS) and then lysed in 300 μl ice-cold lysis buffer (50 mM Tris HCl pH 7.4, 1% NP-40, 0.25% Sodium Deoxycholate, 150 mM NaCl, 1 mM EGTA, 10 μg/ml Leupeptin, 2 μg/ml Aprotinin, 1 mM PMSF and 0.5 mM sodium orthovanadate). Lysates were cleared by centrifugation for 15 min at 14,000 rpm in the cold and the protein concentration of the supernatants was determined according to manufacturer specifications (Bio-Rad: Hercules, Calif.). For Western blot analysis, 50-70 μg of Schwann cell lysates were size-fractionated on 10% SDS-polyacrylamide gels and transferred onto PVDF membranes. After blocking in 5% milk, the membranes were incubated with appropriate primary antibodies prepared in blocking solution. After incubating with horseradish peroxidase conjugated secondary antibodies, the protein bands were visualized by enhanced chemiluminescence. For immunoprecipitation, 500 μg of Schwann cell lysates were incubated with 0.6 μg of primary antibody for 3 hours at 4° C., then incubated with 50 μl Sepharose A beads for 1 hour. […]
as §3

As for `O=C(NOCC1CC1)c1ccc(F)c(F)c1Nc1ccc(I)cc1Cl` [CI-1040], in [1], the responses result was “no responses” and the tolerability entry was “well tolerated”. Further, in series [2], the side effects result is “mild gastrointestinal and skin side effects”.

With `COc1cccc(-c2cc(=O)c3ccccc3o2)c1N` [PD 98059], at MAP kinase-kinase, the IC50 was 1 to 20 µM.

As for `O=C(NOC[C@H](O)CO)c1ccc(F)c(F)c1Nc1ccc(I)cc1F` [PD 0325901], in the series with melanoma (human, in vivo), the “response in melanoma patients” value is on record as “some partial response”. Also, in the series with melanoma (oral), the “dose at which ocular and neurological toxicity presented” value was ≥ 10 mg twice-a-day.

With `N#C/C(=C(/N)Sc1ccc(N)cc1)c1ccccc1C(F)(F)F` [SL 327], the brain penetration result in series [3] is on record as “brain penetrant”.

Take `N#CC(=C(/N)Sc1ccccc1N)/C(C#N)=C(\N)Sc1ccccc1N` [U0126]: the P0 expression result in the series with P0 is “increase in P0 expression”. The “level of GGF2-induced MAPK activation” value with MAPK (U0126 1 μM, 30 minutes pretreatment, GGF2 0.6 nM) is listed as “reduced to the basal level”. Also, the “MAPK activation in the co-culture” value with MAPK (U0126 10 μM, 30 minutes pretreatment, GGF2 0.6 nM) was “completely abolished”. In addition, the “GGF2-induced Erk activation” value in the series on MAPK (increasing concentrations of U0126, FIG. 3B) is listed as “inhibited GGF2-induced Erk activation in a dosage-dependent manner”. The “higher potency than PD 98059” value in the series on MEK-1 and MEK-2 was 100 fold. Moreover, the Krox20 expression result in the series on Krox20 was “increase in Krox20 expression”. The “effect on GGF2-induced PI3-kinase / Akt activation” value with Akt is on record as “no effect”. In addition, in series [4] (U0126 in the absence of GGF2, FIG. 3E), the level of myelination result is recorded as “increase in the level of myelination”. Besides, the “myelination in GGF2-treated co-cultures” value in series [4] (co-treated with GGF2 and U0126, ten to eleven days) is “dose-dependent increase in myelination; also recorded: the inhibitory effect of GGF2 was reversed”. Moreover, in the series with c-Jun, the “GGF-induced c-Jun expression” value is “down-regulating”.

As for `Cn1cncc1[C@@](N)(c1ccc(Cl)cc1)c1ccc2c(c1)c(-c1cccc(Cl)c1)cc(=O)n2C` [Zarnestra, tipifarnib], in the series with metastatic breast cancer, the “major side effects observed” value is “bone marrow suppression and neuropathy”.

With `CNC(=O)c1cc(Oc2ccc(NC(=O)Nc3ccc(Cl)c(C(F)(F)F)c3)cc2)ccn1` [sorafenib, Sorafenib], in the series on advanced kidney cancer (768 patients), the “most common side effects” value is “hypertension, fatigue, diarrhea, and rash”; the tolerability result is reported as “very well tolerated”. Further, the “progression-free survival (PFS), median” value in the series on advanced kidney cancer (769 analyzed patients) was 24 weeks. Also, the 12-week progression-free rate in the series on advanced kidney cancer (in vivo) is reported as 79%. Moreover, in the series on advanced kidney cancer (setting [5]), the disease control is 80%, the partial response is 2% and the stable disease was 78%.
